Bounds are passed on as bounds.

From ChEMBL document CHEMBL1649377, “Synthesis, biological assessment and molecular modeling of new dihydroquinoline-3-carboxamides and dihydroquinoline-3-carbohydrazide derivatives as cholinesterase inhibitors, and Ca channel antagonists” (Eur J Med Chem, 2011) come the findings set out here.

One assay has as its target Cholinesterase (Equus caballus, UniProt P81908). As to the kind of experiment: Inhibition of horse serum BChE after 15 mins by Ellman's method.
Another assay addresses Acetylcholinesterase (Electrophorus electricus, UniProt O42275).

Sequence of Acetylcholinesterase (O42275 whole entry): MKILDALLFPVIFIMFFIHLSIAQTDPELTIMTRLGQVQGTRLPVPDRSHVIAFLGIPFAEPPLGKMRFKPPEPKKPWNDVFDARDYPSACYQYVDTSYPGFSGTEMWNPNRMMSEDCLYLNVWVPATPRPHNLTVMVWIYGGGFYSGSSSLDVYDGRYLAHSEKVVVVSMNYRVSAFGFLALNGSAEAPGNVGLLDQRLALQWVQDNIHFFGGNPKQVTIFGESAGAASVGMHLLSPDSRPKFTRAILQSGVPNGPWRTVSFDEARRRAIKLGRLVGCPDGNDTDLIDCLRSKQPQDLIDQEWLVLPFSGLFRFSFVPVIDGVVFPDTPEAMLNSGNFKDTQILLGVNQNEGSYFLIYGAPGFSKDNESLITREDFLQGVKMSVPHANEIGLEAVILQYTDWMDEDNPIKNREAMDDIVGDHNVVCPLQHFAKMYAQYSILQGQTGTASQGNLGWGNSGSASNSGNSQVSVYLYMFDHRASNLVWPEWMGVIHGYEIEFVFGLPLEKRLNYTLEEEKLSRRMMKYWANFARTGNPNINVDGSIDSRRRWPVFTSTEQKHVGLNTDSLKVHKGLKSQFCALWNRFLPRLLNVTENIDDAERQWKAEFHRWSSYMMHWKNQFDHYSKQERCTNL
Sequence of Cholinesterase (P81908 whole entry): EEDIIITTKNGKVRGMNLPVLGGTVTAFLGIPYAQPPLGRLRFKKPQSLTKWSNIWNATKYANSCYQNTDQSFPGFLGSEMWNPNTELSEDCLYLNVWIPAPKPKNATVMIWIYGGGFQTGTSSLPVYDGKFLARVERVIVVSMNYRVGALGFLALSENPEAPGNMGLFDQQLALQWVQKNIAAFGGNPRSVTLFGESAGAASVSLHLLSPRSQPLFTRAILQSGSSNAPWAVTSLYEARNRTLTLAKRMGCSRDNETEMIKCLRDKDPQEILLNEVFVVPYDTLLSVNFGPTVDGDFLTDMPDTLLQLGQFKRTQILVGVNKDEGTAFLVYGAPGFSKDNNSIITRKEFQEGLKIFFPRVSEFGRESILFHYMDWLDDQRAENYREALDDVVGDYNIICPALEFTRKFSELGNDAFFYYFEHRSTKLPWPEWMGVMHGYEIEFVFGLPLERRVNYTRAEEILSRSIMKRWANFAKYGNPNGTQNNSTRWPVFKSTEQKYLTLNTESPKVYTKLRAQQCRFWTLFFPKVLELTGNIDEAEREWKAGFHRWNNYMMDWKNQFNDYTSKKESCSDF
Description for Acetylcholinesterase: Inhibition of electric eel AChE after 15 mins by Ellman's method

On to `NCCNCCNCCNC(=O)c1c(O)c2ccccc2[nH]c1=O`, for which the IC50 against Cholinesterase was determined as 19 µM; against Acetylcholinesterase, 13 µM.
The like results for `Cn1c(=O)c(C(=O)NCCNCCNCCN)c(O)c2ccccc21` were, in that order, 5.2 µM and above 30 µM.
On to `O=C(N/N=C/c1ccc(O)cc1O)c1c(O)c2c(Cl)cccc2[nH]c1=O`, for which the IC50 is above 30 µM on Cholinesterase and 12 µM against Acetylcholinesterase.
The like results for `CC1=C2C(=O)Nc3c(cccc3[N+](=O)[O-])C2NC(=O)N1C` (racemic) were, in that order, above 30 µM and 8 µM.
With `CCN1C(=O)NC2C(=C1C)C(=O)Nc1c2cccc1[N+](=O)[O-]` (racemic), the IC50 was above 30 µM on Cholinesterase and 6 µM against Acetylcholinesterase.
